B1: Fab-B (Fab, V domains shown)
VH: EVQLQQSGPELVKPGASMKISCKTSGYSFTGYTMNWVKQSHGKNLEWIGLINPYNGDTSYNQKFKGKATLTVDKSSSTAYMELLSLTSEDSAVYYCEVINTYWGQGTLVTVSA
VL: DIVMTQSPASLAVSLGQRATISCKASQSIDYDGDNYMNWYQQKPGQPPKLLIYTTSNLESGIPARFSGSGSGTDFTLNIHPVEEGDAATYYCQQNNEDPYTFGGGTKLEIK

Columns and labels:
[1] = system: SARS-CoV-2 rWuhan M(P132S); type: cell-based
[2] = molecular target: SARS-CoV-2 M protein (membrane protein), purified recombinant (SARS-CoV-2, UniProt P0DTC5); assay: cryo-EM structure

Molecule | susceptibility of M(P132S) virus (in words) [1] | binding result [2]
N#C[C@@]1(c2ccc3c(N)ncnn23)O[C@H](CO)[C@@H](O)[C@H]1O [GS-441524] | remained fully susceptible | –
CC(C)(C)[C@H](NC(=O)C(F)(F)F)C(=O)N1C[C@H]2[C@@H]([C@H]1C(=O)N[C@H](C#N)C[C@@H]1CCNC1=O)C2(C)C [Nirmatrelvir] | remained fully susceptible | –
B1 | – | binds
